# Test results as given in paper PMC6356164, “Identification of a novel lactose oxidase in Myrmecridium flexuosum NUK‐21” (FEBS Open Bio, 2019).
# Tested on: T1, lactose oxidase (LOD)
# T1 construct: native enzyme purified from wheat bran solid culture; 2 Zn per mole, no FAD or heme
# Test: peroxidase-4-aminoantipyrine assay, Hanes-Woolf plot
# Type: biochemical, Myrmecridium flexuosum
# Conditions: 50 mM Tris-HCl pH 7.8, 30 °C, O2 as acceptor
# From the text: peroxidase-4-aminoantipyrine assay, Hanes-Woolf plot on lactose oxidase (LOD)
# [1] = substrate inhibition above 1 mM
SMILES,Km [1] [µM],Km [µM]
OC[C@H]1O[C@@H](O[C@H]2[C@H](O)[C@@H](O)C(O)O[C@@H]2CO)[C@H](O)[C@@H](O)[C@@H]1O (stereo partly drawn) [Cellobiose],63,–
OC[C@H]1O[C@@H](O[C@H]2[C@H](O)[C@@H](O)C(O)O[C@@H]2CO)[C@H](O)[C@@H](O)[C@H]1O (stereo partly drawn) [Lactose],76,–
OC[C@H]1O[C@H](O[C@H]2[C@H](O)[C@@H](O)C(O)O[C@@H]2CO)[C@H](O)[C@@H](O)[C@@H]1O (stereo partly drawn) [Maltose],–,22000
